Assay: Phase I clinical trial: treatment-emergent adverse events (patients, n (%)), dose limiting toxicity, MTD
Assay type: in vivo
Method: Safety, maximum tolerated dose (MTD), pharmacokinetics (PK) and preliminary antitumor activity were evaluated.
Pharmacodynamic (PD) endpoints were evaluated in surrogate (peripheral blood cells [PBCs], skin) and tumor tissues for the phosphorylation of TORC1-dependent markers (4EBP1/S6), and TORC2-dependent markers (AKT/PRAS40).

CC(C)n1nc(-c2ccc3oc(N)nc3c2)c2c(N)ncnc21 [compound A]
Anaemia (2 mg/day (N = 3)): 0 (0%)
Asthenia (2 mg/day (N = 3)): 0 (0%)
Blood creatinine increased (2 mg/day (N = 3)): 0 (0%)
Coagulopathy (2 mg/day (N = 3)): 0 (0%)
Confusional state (2 mg/day (N = 3)): 0 (0%)
Cough (2 mg/day (N = 3)): 0 (0%)
Decreased appetite (2 mg/day (N = 3)): 1 (33%)
Dehydration (2 mg/day (N = 3)): 0 (0%)
Diarrhoea (2 mg/day (N = 3)): 0 (0%)
Dizziness (2 mg/day (N = 3)): 0 (0%)
Dry mouth (2 mg/day (N = 3)): 1 (33%)
Dry skin (2 mg/day (N = 3)): 0 (0%)
Dysgeusia (2 mg/day (N = 3)): 2 (67%)
Dyspepsia (2 mg/day (N = 3)): 1 (33%)
Dyspnoea (2 mg/day (N = 3)): 0 (0%)
Dyspnoea exertional (2 mg/day (N = 3)): 0 (0%)
Eye infection (2 mg/day (N = 3)): 0 (0%)
Fatigue (2 mg/day (N = 3)): 1 (33%)
Gastritis (2 mg/day (N = 3)): 0 (0%)
Gravitational oedema (2 mg/day (N = 3)): 0 (0%)
Hypercholesterolaemia (2 mg/day (N = 3)): 0 (0%)
Hyperglycaemia (2 mg/day (N = 3)): 2 (67%)
Hypocalcaemia (2 mg/day (N = 3)): 0 (0%)
Insomnia (2 mg/day (N = 3)): 0 (0%)
Lymphopenia (2 mg/day (N = 3)): 0 (0%)
Mucosal inflammation (2 mg/day (N = 3)): 0 (0%)
Muscle spasms (2 mg/day (N = 3)): 0 (0%)
Nausea (2 mg/day (N = 3)): 1 (33%)
Orthostatic hypotension (2 mg/day (N = 3)): 0 (0%)
Panniculitis (2 mg/day (N = 3)): 0 (0%)
Patients Reporting at Least One Related TEAE (2 mg/day (N = 3)): 3 (100%)
Polyuria (2 mg/day (N = 3)): 0 (0%)
Pruritus (2 mg/day (N = 3)): 0 (0%)
Rash (2 mg/day (N = 3)): 1 (33%)
Skin discolouration (2 mg/day (N = 3)): 0 (0%)
Skin exfoliation (2 mg/day (N = 3)): 0 (0%)
Thrombocytopenia (2 mg/day (N = 3)): 0 (0%)
Vomiting (2 mg/day (N = 3)): 0 (0%)
Weight decreased (2 mg/day (N = 3)): 0 (0%)
Anaemia (4 mg/day (N = 7)): 0 (0%)
Asthenia (4 mg/day (N = 7)): 0 (0%)
Blood creatinine increased (4 mg/day (N = 7)): 1 (14%)
Coagulopathy (4 mg/day (N = 7)): 0 (0%)
Confusional state (4 mg/day (N = 7)): 0 (0%)
Cough (4 mg/day (N = 7)): 0 (0%)
Decreased appetite (4 mg/day (N = 7)): 1 (14%)
Dehydration (4 mg/day (N = 7)): 0 (0%)
Diarrhoea (4 mg/day (N = 7)): 0 (0%)
Dizziness (4 mg/day (N = 7)): 0 (0%)
Dry mouth (4 mg/day (N = 7)): 1 (14%)
Dry skin (4 mg/day (N = 7)): 0 (0%)
Dysgeusia (4 mg/day (N = 7)): 3 (43%)
Dyspepsia (4 mg/day (N = 7)): 0 (0%)
Dyspnoea (4 mg/day (N = 7)): 0 (0%)
Dyspnoea exertional (4 mg/day (N = 7)): 1 (14%)
Eye infection (4 mg/day (N = 7)): 0 (0%)
Fatigue (4 mg/day (N = 7)): 2 (29%)
Gastritis (4 mg/day (N = 7)): 0 (0%)
Gravitational oedema (4 mg/day (N = 7)): 0 (0%)
Hypercholesterolaemia (4 mg/day (N = 7)): 1 (14%)
Hyperglycaemia (4 mg/day (N = 7)): 5 (71%)
Hypocalcaemia (4 mg/day (N = 7)): 0 (0%)
Insomnia (4 mg/day (N = 7)): 0 (0%)
Lymphopenia (4 mg/day (N = 7)): 1 (14%)
Mucosal inflammation (4 mg/day (N = 7)): 2 (29%)
Muscle spasms (4 mg/day (N = 7)): 0 (0%)
Nausea (4 mg/day (N = 7)): 2 (29%)
Orthostatic hypotension (4 mg/day (N = 7)): 0 (0%)
Panniculitis (4 mg/day (N = 7)): 0 (0%)
Patients Reporting at Least One Related TEAE (4 mg/day (N = 7)): 7 (100%)
Polyuria (4 mg/day (N = 7)): 1 (14%)
Pruritus (4 mg/day (N = 7)): 2 (29%)
Rash (4 mg/day (N = 7)): 3 (43%)
Skin discolouration (4 mg/day (N = 7)): 0 (0%)
Skin exfoliation (4 mg/day (N = 7)): 0 (0%)
Thrombocytopenia (4 mg/day (N = 7)): 1 (14%)
Vomiting (4 mg/day (N = 7)): 0 (0%)
Weight decreased (4 mg/day (N = 7)): 0 (0%)
Dose limiting toxicity (6 mg QD): Rash
Alanine aminotransferase increased (6 mg/3 W, QDx3d QW (N = 3)): 1 (33%)
Asthenia (6 mg/3 W, QDx3d QW (N = 3)): 0 (0%)
Catheter site inflammation (6 mg/3 W, QDx3d QW (N = 3)): 0 (0%)
Catheter site pain (6 mg/3 W, QDx3d QW (N = 3)): 0 (0%)
Decreased appetite (6 mg/3 W, QDx3d QW (N = 3)): 0 (0%)
Diarrhoea (6 mg/3 W, QDx3d QW (N = 3)): 0 (0%)
Dry skin (6 mg/3 W, QDx3d QW (N = 3)): 0 (0%)
Dysgeusia (6 mg/3 W, QDx3d QW (N = 3)): 0 (0%)
Dyspnoea (6 mg/3 W, QDx3d QW (N = 3)): 0 (0%)
Fatigue (6 mg/3 W, QDx3d QW (N = 3)): 0 (0%)
Headache (6 mg/3 W, QDx3d QW (N = 3)): 0 (0%)
Hyperbilirubinaemia (6 mg/3 W, QDx3d QW (N = 3)): 1 (33%)
Hypercholesterolaemia (6 mg/3 W, QDx3d QW (N = 3)): 0 (0%)
Hyperglycaemia (6 mg/3 W, QDx3d QW (N = 3)): 1 (33%)
Hypertransaminasaemia (6 mg/3 W, QDx3d QW (N = 3)): 0 (0%)
Hypertriglyceridaemia (6 mg/3 W, QDx3d QW (N = 3)): 0 (0%)
Hypomagnesaemia (6 mg/3 W, QDx3d QW (N = 3)): 0 (0%)
Hypotension (6 mg/3 W, QDx3d QW (N = 3)): 0 (0%)
Low fever (6 mg/3 W, QDx3d QW (N = 3)): 0 (0%)
Lymphopenia (6 mg/3 W, QDx3d QW (N = 3)): 0 (0%)
Mucosal inflammation (6 mg/3 W, QDx3d QW (N = 3)): 2 (67%)
Nausea (6 mg/3 W, QDx3d QW (N = 3)): 2 (67%)
Palmar-plantar erythrodysaesthesia syndrome (6 mg/3 W, QDx3d QW (N = 3)): 0 (0%)
Patients Reporting at Least One Related TEAE (6 mg/3 W, QDx3d QW (N = 3)): 3 (100%)
Platelet count decreased (6 mg/3 W, QDx3d QW (N = 3)): 1 (33%)
Pruritus (6 mg/3 W, QDx3d QW (N = 3)): 1 (33%)
Pyrexia (6 mg/3 W, QDx3d QW (N = 3)): 0 (0%)
Rash (6 mg/3 W, QDx3d QW (N = 3)): 1 (33%)

Source: patent US9174994B2, “Enhanced treatment regimens using mTor inhibitors” (INTELLIKINE LLC, priority 2011, dated 2015)
